Experimental data: patent US20200246298A1, “Composition for Preventing or Treating Asthma Comprising Fatty Acid as Active Ingredient” (Dongshin University Industry-Academy Cooperation, priority 2019, published 2020)

Legend:
Format in all cases: in vivo, BALB/c mice
TNF-α [1] = assay: RT-PCR analysis of lung, OVA-induced asthma; details: palmitic acid 5, 25, 50 mg/kg oral, FIG. 27
Experimental: (§1) In test groups, the animals determined to be healthy during the acclimation period were ranked by measuring the weight, and were randomly grouped so that the average weight of each group was uniform. The animals were divided into a total of 9 groups: a control group; a control group with OVA-induced asthma; a positive control group; groups administered with each of 50 mg/kg, 125 mg/kg and 250 mg/kg of oleic acid; and groups administered with each of 5 mg/kg, 25 mg/kg and 50 mg/kg of palmitic acid. The animals were sensitized via intraperitoneal injection of OVA once a week for 2 weeks after the acclimation period. During 5 days of week 3, dexamethasone (DEX) and the test substances oleic acid and palmitic acid were orally administered in the morning and 5% OVA solution was inhaled in the afternoon. The test substance was orally administered in an amount of 28 μL per weight (g) of the experimental animal, and OVA for sensitization was administered in a constant amount regardless of the weight. After 5 days of administration, autopsy was performed the next day.
(§2) In order to evaluate changes in the cDNA levels of IFN-γ, IL-12p40, IL-4, IL-5, IL-13, TNF-α, and IL-6, which are related to asthma induction, RT-PCR analysis was performed as in a previous study protocol (Lee et al., 2017). Total RNA was extracted from the lung using the RNeasy Mini Kit (Qiagen, Hilden, Germany) according to the manufacturer's instructions. Total RNA (100 ng) was used as a template for the reaction.
(§3) The RT-PCR cycles consisted of denaturation at 95° C. for 5 sec and annealing/extension at 65° C. for 30 sec for 40 cycles. The results were obtained using an Axioscope A1 (Carl Zeiss, Gottingen, Germany).

IL-13 [2] = assay: RT-PCR analysis of lung, OVA-induced asthma; details: palmitic acid 5, 25, 50 mg/kg oral, FIG. 27
Experimental: as §1, §2, §3

IL-6 [3] = assay: RT-PCR analysis of lung, OVA-induced asthma; details: palmitic acid 5, 25, 50 mg/kg oral, FIG. 27
Experimental: as §1, §2, §3

TNF-α [4] = assay: ELISA analysis in lung tissue, OVA-induced asthma; details: palmitic acid 5, 25, 50 mg/kg oral, particularly the 50 mg/kg group, FIG. 25
Experimental: (§4) In test groups, the animals determined to be healthy during the acclimation period were ranked by measuring the weight, and were randomly grouped so that the average weight of each group was uniform. The animals were divided into a total of 9 groups: a control group; a control group with OVA-induced asthma; a positive control group; groups administered with each of 50 mg/kg, 125 mg/kg and 250 mg/kg of oleic acid; and groups administered with each of 5 mg/kg, 25 mg/kg and 50 mg/kg of palmitic acid. The animals were sensitized via intraperitoneal injection of OVA once a week for 2 weeks after the acclimation period. During 5 days of week 3, dexamethasone (DEX) and the test substances oleic acid and palmitic acid were orally administered in the morning and 5% OVA solution was inhaled in the afternoon. The test substance was orally administered in an amount of 28 μL per weight (g) of the experimental animal, and OVA for sensitization was administered in a constant amount regardless of the weight. After 5 days of administration, autopsy was performed the next day. To analyze the levels of IFN-γ, IL-12p40, IL-4, IL-5, IL-6, and TNF-α in lung tissue, OptEIA mouse ELISAs were purchased from BD Biosciences. The IL-13 levels were assessed using the AbFrontier Cymax mouse FT ISA kit (AbFrontier, Seoul, Korea). All assays were performed according to the manufacturers' guidelines. All lung samples were prepared by a lysis buffer made with a protease inhibitor cocktail and an RIPA buffer (Thermo Fisher Scientific). Aliquots of lung tissue from all groups were weighed and homogenized with lysis buffer. They were then centrifuged at 8,200 rpm for 15 minutes, and the supernatants were harvested and measured using a microplate reader (EZ Read 400, Biochrom, Cambourne, UK).

IL-13 [5] = assay: ELISA analysis in lung tissue, OVA-induced asthma; details: palmitic acid 5, 25, 50 mg/kg oral, particularly the 50 mg/kg group, FIG. 24
Experimental: as §4

IL-6 [6] = assay: ELISA analysis in lung tissue, OVA-induced asthma; details: palmitic acid 5, 25, 50 mg/kg oral, particularly the 50 mg/kg group
Experimental: as §4

IL-4 = assay: ELISA analysis in lung tissue, OVA-induced asthma; details: palmitic acid 5, 25, 50 mg/kg oral, particularly the 50 mg/kg group, FIG. 22
Experimental: as §4

IL-5 = assay: ELISA analysis in lung tissue, OVA-induced asthma; details: palmitic acid 5, 25, 50 mg/kg oral, particularly the 5 mg/kg group, FIG. 23
Experimental: as §4

IL-12p40 = assay: ELISA analysis in lung tissue, OVA-induced asthma; details: palmitic acid 5, 25, 50 mg/kg oral, particularly the 25 mg/kg group, FIG. 21
Experimental: as §4

IFN-γ = assay: ELISA analysis in lung tissue, OVA-induced asthma; details: palmitic acid 5, 25, 50 mg/kg oral, vs OVA, FIG. 20
Experimental: as §4

## CCCCCCCCCCCCCCCC(=O)O [palmitic acid]
TNF-α [1]
  Th17-related cytokine TNF-α (cDNA level, RT-PCR): dose-dependently decreased
IL-13 [2]
  Th2-related cytokine IL-13 (cDNA level, RT-PCR): dose-dependently decreased
IL-6 [3]
  Th17-related cytokine IL-6 (cDNA level, RT-PCR): dose-dependently decreased
TNF-α [4]
  expression level of TNF-α: decreased
IL-13 [5]
  expression level of IL-13: decreased
IL-6 [6]
  expression level of IL-6: decreased
IL-4
  expression level of IL-4: decreased
IL-5
  expression level of IL-5: decreased
IL-12p40
  expression level of IL-12p40: decreased
IFN-γ
  expression level of IFN-γ: dose-dependently decreased
